Measured values: US10434076B2, “Use of 2,5-dihydroxybenzene derivatives for treating dermatitis” (AmDerma Pharmaceuticals, LLC, priority 2006, dated 2019)
Entries after “also recorded” stand apart in the source; their conditions may differ.

Tests used:
[1] = system: myeloperoxidase (MPO) activity; test: Myeloperoxidase (MPO) activity in the ear after benzalkonium chloride induced dermatitis; type: in vivo, rat; conditions: for increase in MPO activity in the ear caused by dermatitis: 24 hours after induction
Protocol: In this same model (Hyun E et al. Br J Pharmacol, 2004), dermatitis induction has been associated to an increase in the myeloperoxidase (MPO) activity in the ear, as a marker of leukocyte infiltration in the tissue affected with dermatitis. Based on these evidences, the effect of hydroxybenzene derivatives (i the activity of the MPO in the model described in this example was established. The MPO activity was determined in the ears of control rats (without dermatitis) and in ears on which dermatitis had been induced with benzalkonium chloride and had been treated with vehicle (anhydrous glycerol), 5% DHBS cream or DABS 2.5% solution in glycerol. The ears were frozen in liquid nitrogen 24 hours after the induction of dermatitis and were kept at −80° C. until determination of MPO activity. To determine the MPO activity, the frozen ears were homogenized in phosphate buffer with 0.5% of hexadecyltrimethylammonium bromide. After several freezing/thawing/sonication cycles, the samples were centrifuged at 13,000×g during 20 minutes at 4° C. H2O2 and O-dianisidine were added into the supernatants and the absorbance was measured at 460 nm in a spectrophotometer 1 hour after incubation at room temperature. The MPO activity is expressed as absorbance units per mg of tissue.

[2] = system: dermatitis induced by the application of benzalkonium chloride on the rat ears; test: Benzalkonium chloride induced dermatitis on rat ears, Evans blue dye extravasation; type: in vivo; conditions: for percentage of the area stained in blue compared to the total area of the ear (dermatitis extent): treated vs untreated ear
Protocol: Dermatitis was induced by the application of benzalkonium chloride, 5% solution (w/v) (1:5 olive oil:acetone) on the entire extent of the back part of the car ([…]) in anesthetized rats. Dermatitis was induced in both ears. In the assay of 2,5-dihydroxybenzenesulfonate (DHBS), a cream containing 5% of DHBS (w/w) was applied topically only on the back part of the right ear, 30 minutes after the application of benzalkonium chloride. Fifteen minutes later, 0.5% by weight of Evans blue dye solution (400 μL per animal) was injected into the jugular vein. […] Therefore, it can be stated that topical application of 5% DHBS reduced the dermatitis extent.
This observation was confirmed upon quantification of dermatitis extent based on the area of the ear stained in blue with respect to the total area of the ear. Identically obtained photographs of the extended ears were processed in order to determine the stained area and the total area of the ear using a computer program to analyze images (Motic Image). The stained area of each ear was related to the total area to obtain the percentage of the ear affected by the dermatitis. […] 24 hours after dermatitis induction (FIG. 2B), these values were very similar.
Using the same procedure as in the former example, dermatitis was induced by the application of benzalkonium chloride, 5% solution (w/v) (1:5 olive oil:acetone) on the entire extent of the back part of the ear (40 μL/ear) in anesthetized rats. Dermatitis was induced in both ears. A cream containing 5% (w/v) of either 2-acetoxy-5-hydroxybenzenesulfonate (2A-5HBS) or 5-acetoxy-2-hydroxybenzenesulfonate (5A-2HBS) was applied topically only on the back part of the right ear, 30 minutes after the application of benzalkonium chloride. Fifteen minutes later, 0.5% (w/v) of Evans blue dye solution (400 μL per animal) was injected into the jugular vein. […] Therefore, it can be stated that topical application of 5% 2A-5HBS and 5% 5A-2HBS reduced the dermatitis extent.
This observation was confirmed upon quantification of dermatitis extent based on the area of the ear stained in blue with respect to the total area of the ear. Identically obtained photographs of the extended ears were processed in order to determine the stained area and the total area of the ear using a computer program to analyze images (Motic Image). The stained area of each car was related to the total area to obtain the percentage of the ear affected by the dermatitis.

[3] = system: dermatitis induced by benzalkonium chloride on the ear of the rat; test: Benzalkonium chloride induced dermatitis on rat ears, erythema and histological study; type: in vivo
Protocol: Using the same model, dermatitis was induced on both ears of two rats, following the same process described above. In this case, 30 minutes after the application of benzalkonium chloride, a rat was treated in both ears with a glycerol solution (FIG. 3A), while the other one was treated in both ears with a glycerol solution containing 2.5% (w/v) of 2,5-diacetoxybenzenesulfonate (DABS) (FIG. 3B).

[4] = molecular target: Fibroblast Growth Factor-1 (FGF-1) (Homo sapiens, UniProt P05230); test: Structural interaction with FGF-1 (diffraction of complex crystals); type: binding; conditions: electron density
Protocol: As of the diffraction from complex crystals of FGF-1: 2-acetoxy-5-hydroxybenzenesulfonic acid, FGF-1; 5-acetoxy-2-hydroxybenzenesulfonic acid and FGF-1: 2,5-diacetoxybenzenesulfonic acid, the complex structures were calculated and represented. In FIGS. 10, 11 and 12, representing the surface of the protein coloured according to its electrostatic potential (light grey: negative charge, dark grey: positive charge, white: areas with no charge), the interaction form of the 2-acetoxy-5-hydroxybenzenesulfonic acid, 5-acetoxy-2-hydroxybenzenesulfonic acid and 2,5-diacetoxybenzenesulfonic acid, respectively, with the FGF-1 may be observed.

[5] = topical 2.5% DABS in glycerol vs vehicle, tissues fixed 24 hours after induction
[6] = topical 5% (w/v) monoester on right ear vs untreated left ear, 24 hours after induction
[7] = topical 5% monoester solution, 24 hours after induction

Chain of Fibroblast Growth Factor-1 (FGF-1) (P05230 whole entry, species assumed): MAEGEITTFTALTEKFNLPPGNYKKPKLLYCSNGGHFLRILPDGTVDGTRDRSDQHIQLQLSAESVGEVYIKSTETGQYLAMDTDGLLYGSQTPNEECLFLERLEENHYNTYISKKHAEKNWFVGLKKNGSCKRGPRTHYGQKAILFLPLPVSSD

SMILES | increase in MPO activity in the ear caused by dermatitis ([1]; topical 5% DHBS cream vs vehicle) | blue stain extent (Evans blue dye extravasation), photographs ([2]; topical cream 5% DHBS on right ear vs untreated left ear, 4 hours after dermatitis induction) | percentage of the area stained in blue compared to the total area of the ear (dermatitis extent) ([2]; topical cream 5% DHBS, 4 hours after induction) | erythema caused by the dermatitis ([3]; topical 2.5% (w/v) DABS in glycerol vs glycerol vehicle) | granulocytes adhered to the capillary endothelial cells (histological study) [3, 5] | leukocyte infiltration (histological study) [3, 5] | tissular edema (histological study) [3, 5] | acetoxyl groups kept when bound to FGF-1 [4] | location of the compound bound to FGF-1 [4] | efficacy on MPO activity relative to 5% DHBS ([1]; 2.5% DABS (half the amount of active principle) compared with 5% DHBS) | increase in MPO activity in the ear caused by dermatitis ([1]; topical 2.5% DABS solution in glycerol vs vehicle) | blue stain extent (Evans blue dye extravasation), photographs [2, 6] | percentage of the area stained in blue compared to the total area of the ear (dermatitis extent) [2, 7]
O=S(=O)(O)c1cc(O)ccc1O [DHBS, 2,5-dihydroxybenzenesulfonic acid, reference compound] | significantly reduced | clearly smaller blue stain; also recorded: remarkably reduced dye extravasation | significantly reduced the percentage of the area stained in blue; also recorded: significantly reduced dermatitis extent | – | – | – | – | – | – | – | – | – | –
CC(=O)Oc1ccc(OC(C)=O)c(S(=O)(=O)O)c1 [DABS, 2,5-diacetoxybenzenesulfonic acid] | – | – | – | reduced benzalkonium chloride induced dermatitis; also recorded: milder | significant reduction; also recorded: not observed | reduces the edema and the leukocyte infiltration; also recorded: noticeably milder | reduces the edema; also recorded: not observed | keep the acetoxyl groups in positions 2, 5 and, 2 and 5, respectively | located at a site very close to the site that, as described, is occupied by the 2,5-dihydroxybenzenesulfonic acid | slightly higher | significantly reduces | – | –
CC(=O)Oc1ccc(O)c(S(=O)(=O)O)c1 [5A-2HBS, 5-acetoxy-2-hydroxybenzenesulfonic acid] | – | – | – | – | – | – | – | keep the acetoxyl groups in positions 2, 5 and, 2 and 5, respectively | located at a site very close to the site that, as described, is occupied by the 2,5-dihydroxybenzenesulfonic acid | – | – | notably reduced; also recorded: remarkably reduced dye extravasation | significantly reduced the percentage of the area stained in blue
CC(=O)Oc1ccc(O)cc1S(=O)(=O)O [2A-5HBS, 2-acetoxy-5-hydroxybenzenesulfonic acid] | – | – | – | – | – | – | – | keep the acetoxyl groups in positions 2, 5 and, 2 and 5, respectively | located at a site very close to the site that, as described, is occupied by the 2,5-dihydroxybenzenesulfonic acid | – | – | clearly smaller blue stain; also recorded: remarkably reduced dye extravasation | significantly reduced the percentage of the area stained in blue; also recorded: significantly reduced dermatitis extent
